Usually IC50 stands for the midpoint of a concentration-inhibition curve. A high value points to weaker potency in that assay.

Assay [1] has as its target Intercellular adhesion molecule 1 (Homo sapiens, UniProt P05362). As to the kind of experiment: Inhibition of sICAM1/LFA1 interaction-mediated human THP1 cell adhesion after 1 hr by ELISA. (In general: An ELISA detects its analyte on a solid surface through an enzyme-linked reagent.)
A short description of assay [2]: Inhibition of sICAM1/LFA1 interaction-mediated human THP1 cell adhesion after 1 hr by ELISA.

SMILES strings stand for the structures.

Sequence of Intercellular adhesion molecule 1 (P05362 whole entry): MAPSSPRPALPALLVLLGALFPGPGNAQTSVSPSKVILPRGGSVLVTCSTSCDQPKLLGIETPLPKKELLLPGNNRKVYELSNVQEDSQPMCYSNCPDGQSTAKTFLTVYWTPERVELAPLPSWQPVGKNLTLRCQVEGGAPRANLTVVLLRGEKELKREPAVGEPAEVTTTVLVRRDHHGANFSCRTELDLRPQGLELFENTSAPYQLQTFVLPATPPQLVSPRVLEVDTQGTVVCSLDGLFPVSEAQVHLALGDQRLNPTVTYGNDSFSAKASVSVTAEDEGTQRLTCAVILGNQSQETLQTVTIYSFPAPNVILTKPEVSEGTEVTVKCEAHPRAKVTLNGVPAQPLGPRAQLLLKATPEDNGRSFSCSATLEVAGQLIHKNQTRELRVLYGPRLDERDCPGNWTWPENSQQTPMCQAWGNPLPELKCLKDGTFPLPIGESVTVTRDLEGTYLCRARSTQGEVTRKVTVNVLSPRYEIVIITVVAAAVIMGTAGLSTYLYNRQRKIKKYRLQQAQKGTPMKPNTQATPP

In turn, `O=C(/C=C/C=C\CC/C=C/c1ccc2c(c1)OCO2)N1CCCCC1` returned an IC50 in assay [1] of 32.4 µM. This counts as double-digit micromolar. On the same count and under the same terms, for `CCCCC/C=C/C=C/C(=O)NCC(C)C` [CHEBI:69686] the value was 62.6 µM.

For `O=C(/C=C/C=C/CC/C=C/c1ccc2c(c1)OCO2)N1CCCCC1` [Dehydropipernoline], inhibition in assay [2] was half-maximal at 17.6 µM (IC50). Take `CC(C)CNC(=O)/C=C/C=C/CCCCCC/C=C/c1ccc2c(c1)OCO2` [Guineensine]: the concentration for half-maximal inhibition (IC50) in assay [2] is greater than 130 µM. Compound `CC(C)CNC(=O)/C=C/CCCCCC/C=C/c1ccc2c(c1)OCO2` [PIPERCHABAMIDE D] returned an IC50 in assay [2] of 83.9 µM. As to `O=C(CCCCCC/C=C/c1ccc2c(c1)OCO2)N1CCCCC1` [PIPERROLEIN B], the half-inhibitory concentration (IC50) in assay [1] was 37.8 µM.

Take `O=C(/C=C/CCCC/C=C/c1ccc2c(c1)OCO2)N1CCCCC1` [Pipernonaline]: the concentration for half-maximal inhibition (IC50) in assay [2] is 25.7 µM. Consider `CC(C)CNC(=O)/C=C/CCCC/C=C/c1ccc2c(c1)OCO2` [RETROFRACTAMIDE C], for which the 50% inhibitory concentration (IC50) in assay [2] is greater than 151 µM.

The values are drawn from BindingDB's records for doi:10.1016/j.bmcl.2008.07.045 (Korea Research Institute of Bioscience and Biotechnology, 2008).
